Data on 10 molecules can be found in doi:10.1101/2024.08.19.608619, “Discovery of potent SARS-CoV-2 nsp3 macrodomain inhibitors uncovers lack of translation to cellular antiviral response” (bioRxiv, 2024).

Data set [1] in a line: Hepatic microsomal stability, HLM. The data set is classed as in vitro ADME, human. The settings on record: In vitro human liver microsomal stability; for perc_remaining_no_cofactor: no cofactor.
Data set [2] in a line: Hepatic microsomal stability, MLM. Type of data set: in vitro ADME.
The nature of another data set: LogD. The settings on record: pH 7.4; In vitro LogD.
A short description of data set [3]: In vitro kinetic solubility. As to conditions: In vitro kinetic solubility, ph 7.4.
Data set [4] is described as follows: Permeability Papp (AB) MDR1/MDCKII. The settings on record: In vitro MDR1-MDCKII permeability; for papp_a_to_b_mean: A to B; for perc_recovery_a_to_b_mean: recovery A to B.
The mark [5] stands for this setting: In vitro mouse liver microsomal stability.
The mark [6] stands for this setting: In vitro mouse liver microsomal stability, no cofactor.
[7] abbreviates: In vitro mouse liver microsomal stability; no cofactor.

The structures appear in SMILES notation. Values after ≈ are worked out from the molar mass of the structure shown.

With `CC(C)[C@H](Nc1ncnc2[nH]c(-c3cnn(C)c3C#N)cc12)c1ccc2c(c1)NC(=O)CO2` (single isomer, unassigned) [ASAP-0013256], in data set [1], the clint came to 52.0 µL/min/mg, the perc_remaining is 44.0%, the t_half is on record as 32.3 min and the perc_remaining_no_cofactor turned out to be 109.0%. Further, in data set [2] (setting [5]), the clint amounted to 147.0 µL/min/mg, the perc_remaining was determined as 10.0% and the t_half is given as 11.3 min. Besides, the perc_remaining_no_cofactor in data set [2] (setting [6]) is 102.0%. The molecule further showed a logd in “LogD” of 3.4. This molecule also registered a solubility_mean in data set [3] of 19 µM (≈ 8.41 µg/mL). Also, in data set [4] (no inhibitor), the papp_a_to_b_mean was 2.35 ×10⁻⁶ cm/s and the perc_recovery_a_to_b_mean was 78.9%.
As for `CC(C)[C@H](Nc1ncnc2[nH]c(-c3cnn(CC(=O)N(C)C)c3)cc12)c1ccc2c(c1)OCCO2` (single isomer, unassigned) [ASAP-0013833], in data set [1], the clint was 500.0 µL/min/mg, the perc_remaining is listed as 0.0%, the t_half was 3.3 min and the perc_remaining_no_cofactor is recorded as 115.0%. In data set [2] (setting [5]), the clint turned out to be 35.0 µL/min/mg, the perc_remaining is on record as 54.0% and the t_half came out at 48.1 min. Also, the perc_remaining_no_cofactor in data set [2] (setting [6]) worked out at 102.0%. In the data set “LogD”, this molecule registered a logd of 2.9. The solubility_mean in data set [3] stood at 19 µM (≈ 9.04 µg/mL). Besides, in data set [4] (no inhibitor), the papp_a_to_b_mean was found to be 2.05 ×10⁻⁶ cm/s and the perc_recovery_a_to_b_mean worked out at 82.0%.
On to `CC(C)[C@H](Nc1ncnc2[nH]c(-c3cnn(CC(=O)N(C)C)c3)cc12)c1ccc2c(c1)OCCO2` (single isomer, unassigned) [ASAP-0013837], for which, in data set [1], the clint stood at 108.0 µL/min/mg, the perc_remaining was 18.0%, the t_half stood at 15.4 min and the perc_remaining_no_cofactor is 114.0%. Moreover, in data set [2] (setting [5]), the clint is 45.0 µL/min/mg, the perc_remaining is given as 48.0% and the t_half was 36.8 min. In addition, the perc_remaining_no_cofactor in data set [2] (setting [6]) is reported as 114.0%. The same molecule registered a logd in the data set “LogD” of 3.0. This molecule also displayed a solubility_mean in data set [3] of 205 µM (≈ 97.5 µg/mL). Moreover, in data set [4] (no inhibitor), the papp_a_to_b_mean was 1.62 ×10⁻⁶ cm/s and the perc_recovery_a_to_b_mean stood at 87.9%.
Take `CC(C)[C@H](CO)Nc1ncnc2[nH]ccc12` [ASAP-0000453]: in data set [1], the clint came to 6.0 µL/min/mg, the perc_remaining was determined as 119.0%, the t_half worked out at 289.0 min and the perc_remaining_no_cofactor was 99.0%. Moreover, in data set [2] (setting [5]), the clint stood at 10.0 µL/min/mg, the perc_remaining stood at 90.0% and the t_half was 171.1 min. The perc_remaining_no_cofactor in data set [2] (setting [7]) was found to be 93.0%. In “LogD”, the logd was 1.69. This molecule also registered a solubility_mean in data set [3] not below 400 µM. In data set [4] (mean), the papp_a_to_b_mean was found to be 13.1 ×10⁻⁶ cm/s and the perc_recovery_a_to_b_mean is 89.0%.
For the molecule `CNC(=O)c1c[nH]c2ncnc(N[C@@H](c3ccc4c(c3)OCCO4)C(C)C)c12` [ASAP-0008406], in data set [1], the clint worked out at 79.0 µL/min/mg, the perc_remaining was determined as 27.0%, the t_half is 21.2 min and the perc_remaining_no_cofactor came out at 113.0%. In data set [2] (setting [5]), the clint came to 88.0 µL/min/mg, the perc_remaining was 20.0% and the t_half is 19.0 min. Further, the perc_remaining_no_cofactor in data set [2] (setting [7]) is given as 95.0%. In the data set “LogD”, this molecule yielded a logd of 3.6. The molecule also had a solubility_mean in data set [3] of 319 µM (≈ 122 µg/mL). In data set [4] (mean), this molecule came in with a papp_a_to_b_mean of 16.2 ×10⁻⁶ cm/s and a perc_recovery_a_to_b_mean of 92.4%.
Take `CC(C)[C@H](Nc1ncnc2[nH]ccc12)c1ccc2c(c1)NC(=O)CO2` [ASAP-0008430]: in data set [1], the clint was 10.0 µL/min/mg, the perc_remaining turned out to be 86.0%, the t_half was found to be 160.3 min and the perc_remaining_no_cofactor amounted to 95.0%. Further, in data set [2] (setting [5]), the clint turned out to be 37.0 µL/min/mg, the perc_remaining is on record as 54.0% and the t_half came to 45.1 min. Further, in data set [2] (setting [7]), the perc_remaining_no_cofactor is 89.0%. The same molecule yielded a logd in “LogD” of 1.8. Also, in data set [3], the solubility_mean came out at 371 µM (≈ 125 µg/mL). In data set [4] (mean), the papp_a_to_b_mean stood at 3.4 ×10⁻⁶ cm/s and the perc_recovery_a_to_b_mean is given as 90.0%.
Turning to `CC(C)[C@H](Nc1ncnc2[nH]c(-c3cnn(CC(N)=O)c3)cc12)c1ccc2c(c1)OCCO2` [ASAP-0008449], in data set [1], the clint turned out to be 47.0 µL/min/mg, the perc_remaining turned out to be 43.0%, the t_half was found to be 35.4 min and the perc_remaining_no_cofactor is reported as 102.0%. In data set [2] (setting [5]), the clint is 16.0 µL/min/mg, the perc_remaining is on record as 80.0% and the t_half is 103.7 min. Further, the perc_remaining_no_cofactor in data set [2] (setting [6]) worked out at 104.0%. Besides, the logd in “LogD” worked out at 2.9. For the same molecule, in data set [3], the solubility_mean turned out to be 280 µM (≈ 125 µg/mL). Moreover, in data set [4] (no inhibitor), the papp_a_to_b_mean is 1.09 ×10⁻⁶ cm/s and the perc_recovery_a_to_b_mean was 87.8%.
In the case of `CNC(=O)c1cc2c(N[C@@H](c3ccc4c(c3)NC(=O)CO4)C(C)C)ncnc2[nH]1` [ASAP-0008571], in data set [1], the clint was determined as 52.0 µL/min/mg, the perc_remaining is 39.0%, the t_half came out at 32.0 min and the perc_remaining_no_cofactor stood at 94.0%. In addition, in data set [2] (setting [5]), the clint is 20.0 µL/min/mg, the perc_remaining is recorded as 71.0% and the t_half is 84.4 min. For the same molecule, the perc_remaining_no_cofactor in data set [2] (setting [6]) is given as 103.0%. The logd in the data set “LogD” turned out to be 2.8. This molecule also gave a solubility_mean in data set [3] of 372 µM (≈ 147 µg/mL). In data set [4] (mean), this molecule showed a papp_a_to_b_mean of 0.873 ×10⁻⁶ cm/s and a perc_recovery_a_to_b_mean of 88.1%.
Turning to `CC(C)[C@@H](Nc1ncnc2[nH]c(-c3cnn(C)c3C#N)cc12)c1ccc2c(n1)NC(=O)CO2` [ASAP-0008644], in data set [1], the clint turned out to be 70.0 µL/min/mg, the perc_remaining is 30.0%, the t_half was 23.7 min and the perc_remaining_no_cofactor was found to be 97.0%. Besides, in data set [2] (setting [5]), the clint worked out at 145.0 µL/min/mg, the perc_remaining is 9.0% and the t_half is recorded as 11.5 min. Besides, the perc_remaining_no_cofactor in data set [2] (setting [6]) was found to be 92.0%. Further, in the data set “LogD”, the logd is 3.7. The solubility_mean in data set [3] was 29 µM (≈ 12.9 µg/mL). In data set [4] (mean), this molecule showed a papp_a_to_b_mean of 9.83 ×10⁻⁶ cm/s and a perc_recovery_a_to_b_mean of 91.2%.
Take `CC(C)[C@@H](Nc1ncnc2[nH]c(-c3cnn(CC(N)=O)c3)cc12)c1ccc2c(n1)OCCO2` [ASAP-0008646]: in data set [1], the clint is 14.0 µL/min/mg, the perc_remaining is 77.0%, the t_half was 120.2 min and the perc_remaining_no_cofactor is 95.0%. In addition, in data set [2] (setting [5]), the clint worked out at 12.0 µL/min/mg, the perc_remaining is reported as 83.0% and the t_half is given as 145.2 min. Further, the perc_remaining_no_cofactor in data set [2] (setting [6]) stood at 104.0%. In the data set “LogD”, this molecule had a logd of 2.4. Moreover, the solubility_mean in data set [3] was found to be 385 µM (≈ 173 µg/mL). In data set [4] (mean), this molecule had a papp_a_to_b_mean of 2.46 ×10⁻⁶ cm/s and a perc_recovery_a_to_b_mean of 73.0%.
